Assay results as given in patent publication US7294739B1, “Basic amine esters or oleic acid and their use as anti-inflammatory or immunobodulatory agents” (Teva Pharmacaetical Industries Ltd., priority 2006, dated 2007).

Tested on: Delayed type hypersensitivity (DTH) skin reaction
Experiment: Inhibition of DTH skin reactions (oxazolone-induced mouse ear swelling test)
Format: in vivo, female Balb/c mice
Details: for % Inf ((diff/baseline measurement)×100) / % Inhibit ([1−(diff/diff of PBS)]×100) / Diff. (average difference between baseline and post treatment ear measurements): 24 hours after challenge; for effectiveness in the DTH skin reaction model: 5-100 mg/ml
Method: Delayed type hypersensitivity (DTH), a localized inflammatory reaction induced by cytokines secreted by TH cells when they encounter certain types of antigens, is an established experimental model for skin inflammation.
DTH reactions were induced in the abdomen skin of 8 week old female Balb/c mice. The mice were sensitized first by topical application of 100 μl of a 5% Oxazolone (4-Ethoxymethylene-2-phenyl-2-oxazolin-5-one; Sigma) solution in ethanol/acetone (3:1, vol/vol) to a shaved abdomen. The mice were anesthetized with ip injection of Ketamine (1 ml)+Xylazine (1 ml)+Saline (8 ml), (0.2 ml per 20 g mouse). Anesthetization was performed before the shaving of the abdomen and the first sensitization.
After 4 days the mice were challenged for the second time using 1% Oxazolone (4-Ethoxymethylene-2-phenyl-2-oxazolin-5-one; Sigma) solution in ethanol/acetone (3:1, vol/vol). The solution was pipetted to the shaved abdomen of the mice.
Six days after the first sensitization, the right ear of each mouse was challenged with a topical application of 20 μl (10 μl on each surface of the ear) of a 1% Oxazolone solution in olive oil/acetone (3:1, vol/vol).
Treatment was given 30 min after challenging by applying 40 μl (20 μl on each surface of the ear) of treatment compounds on the challenged ear of each mouse.
After 24 hours, the extent of inflammation was measured using the mouse ear swelling test (caliper) and the percent inhibition induced by the treatment was quantified.
The experiment includes groups treated with 5, 15, 40, and 100 mg/ml of octadec-(Z)-9-enoic acid 4-dimethylaminomethyl-benzyl ester HCl (1c) and groups treated with 5, 15, 40, and 100 mg/ml of octadec-(Z)-9-enoic acid 4-dimethylaminomethyl-phenyl ester HCl (2d). The experiment also includes dexamethasone (2 mg/mouse) as a positive control, one negative control group (PBS, phosphate buffered saline), and one naïve group. There were 6 mice per group. The researchers who performed the measurements were blinded as to the grouping of each mouse.
In Table 1, “diff” refers to average difference between baseline and post treatment measurements in mm; “% Inf” refers to the (diff/baseline measurement)×100; and, “% Inhibit” refers to [1−(diff/diff of PBS)]×100. Baseline measurements of the ear were conducted before the first sensitization.

[1] = topical on challenged ear, treatment 5 mg/ml (0.2 mg/mouse)
[2] = topical on challenged ear, treatment 15 mg/ml (0.6 mg/mouse)
[3] = topical on challenged ear, treatment 40 mg/ml (1.6 mg/mouse)
[4] = topical on challenged ear, treatment 100 mg/ml (4 mg/mouse)
[5] = positive control, dose 2 mg/mouse

Structure (SMILES)	% Inf ((diff/baseline measurement)×100) [1] [%]	% Inhibit ([1−(diff/diff of PBS)]×100) [1] [%]	Diff. (average difference between baseline and post treatment ear measurements) [1] [mm]	% Inf ((diff/baseline measurement)×100) [2] [%]	% Inhibit ([1−(diff/diff of PBS)]×100) [2] [%]	Diff. (average difference between baseline and post treatment ear measurements) [2] [mm]	% Inf ((diff/baseline measurement)×100) [3] [%]	% Inhibit ([1−(diff/diff of PBS)]×100) [3] [%]	Diff. (average difference between baseline and post treatment ear measurements) [3] [mm]	% Inf ((diff/baseline measurement)×100) [4] [%]	% Inhibit ([1−(diff/diff of PBS)]×100) [4] [%]	Diff. (average difference between baseline and post treatment ear measurements) [4] [mm]	effectiveness in the DTH skin reaction model (topical)	most effective doses (DTH skin reaction model, topical) [mg/mL]	% Inf ((diff/baseline measurement)×100) [5] [%]	% Inhibit ([1−(diff/diff of PBS)]×100) [5] [%]	Diff. (average difference between baseline and post treatment ear measurements) [5] [mm]
CCCCCCCC/C=C\CCCCCCCC(=O)OCc1ccc(CN(C)C)cc1.Cl [Compound 1c, Octadec-(Z)-9-enoic acid 4-dimethylaminomethyl-benzyl ester HCl]	92.65	26.74	0.20	103.21	26.01	0.20	58.56	54.82	0.12	48.19	63.37	0.10	effective				
CCCCCCCC/C=C\CCCCCCCC(=O)Oc1ccc(CN(C)C)cc1.Cl [Compound 2d, Octadec-(Z)-9-enoic acid 4-dimethylaminomethyl-phenyl ester HCl]	113.46	13.31	0.24	107.18	21.25	0.22	114.66	13.31	0.24	55.96	59.10	0.11	effective	100			
C[C@@H]1C[C@H]2[C@@H]3CCC4=CC(=O)C=C[C@]4(C)[C@@]3(F)[C@@H](O)C[C@]2(C)[C@@]1(O)C(=O)CO [Positive control, dexamethasone, reference compound]															20.55	84.74	0.04
